Laboratory results taken from patent US10381110B2, “Molecules” (University of Dundee, priority 2010, dated 2019).
Read-outs that look alike come from different tables or passages of the source.

Assays:
dopamine D2 [1] = target: T1, dopamine D2 (Homo sapiens, UniProt P14416); assay: Secondary radioligand binding assay (Ki); details: for α1/D2: Table 22: Selectivity of Dopamine D2 over average of α1 Receptors; for α1A/D2 / α1B/D2 / α1D/D2: Table 22: Selectivity of Dopamine D2 over α1 Receptors, ratio of Ki
T1 sequence (P14416 whole entry, species assumed): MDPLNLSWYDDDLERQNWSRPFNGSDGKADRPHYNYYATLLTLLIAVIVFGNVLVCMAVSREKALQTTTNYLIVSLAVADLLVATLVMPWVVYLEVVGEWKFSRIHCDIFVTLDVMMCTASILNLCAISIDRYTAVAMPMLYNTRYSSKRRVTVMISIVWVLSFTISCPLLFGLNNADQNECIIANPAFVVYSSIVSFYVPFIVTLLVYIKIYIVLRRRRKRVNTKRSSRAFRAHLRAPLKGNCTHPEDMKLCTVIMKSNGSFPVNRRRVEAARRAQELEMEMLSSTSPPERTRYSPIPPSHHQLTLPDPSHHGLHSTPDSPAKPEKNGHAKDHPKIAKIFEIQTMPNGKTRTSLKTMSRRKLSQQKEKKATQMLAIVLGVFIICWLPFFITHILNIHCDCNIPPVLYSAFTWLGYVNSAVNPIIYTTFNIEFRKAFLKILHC
Protocol: (§1) Radioligand is diluted to five times the assay concentration (see Table 18) in Standard Binding Buffer. Typically, the assay concentration of radioligand is a value between one half the KD and the KD of a particular radioligand at its target. 50 μl aliquots of radioligand are dispensed into the wells of a 96-well plate containing 100 μl of Standard Binding Buffer. Then, duplicate 50 μl aliquots of the test and reference compound dilutions are added.
(§2) The 250 μl reactions are incubated at room temperature and shielded from light (to prevent photolysis of light-sensitive ligands) for 1.5 hours, then harvested by rapid filtration onto Whatman GF/B glass fiber filters pre-soaked with 0.3% polyethyleneimine using a 96-well Brandel harverster. Four rapid 500 μl washes are performed with chilled Standard Binding Buffer to reduce non-specific binding. Filters are placed in 6 ml scintillation tubes and allowed to dry overnight. The next day, 4 ml of EcoScint scintillation cocktail (National Diagnostics) are added to each tube. The tubes are capped, labeled, and counted by liquid scintillation counting. […] The filter mats are dried, then scintillant is melted onto the filters and the radioactivity retained on the filters is counted in a Microbeta scintillation counter.
(§3) Raw data (dpm) representing total radioligand binding (i.e. specific+non-specific binding) are plotted as a function of the logarithm of the molar concentration of the competitor (i.e. test or reference compound).
(§4) Assay Buffers: Dopamine Binding Buffer (50 mM NaCl, 50 mM HEPES-HCl, 5 mM MgCl2, 0.5 mM EDTA, pH 7.4)
(§5) Membrane Fraction Source: Transiently or stably transfected cell lines (e.g. HEK293, COS, CHO, NIH3T3)
(§6) The method is carried out in the manner described for the serotonin receptor assay above. Eleven dilutions (5× assay concentration) of the test and reference (see Table 19) compounds are prepared in Dopamine Binding Buffer by serial dilution, as previously described. Radioligand is diluted to five times the assay concentration (see Table 20) in Dopamine Binding Buffer.

dopamine D3 [2] = target: T2, dopamine D3 (Homo sapiens, UniProt P35462); assay: Secondary radioligand binding assay (Ki); details: for α1/D2: Table 23: Selectivity of Dopamine D3 over average of α1 Receptors; for α1A/D2 / α1B/D2 / α1D/D2: Table 23: Selectivity of Dopamine D3 over α1 Receptors, ratio of Ki
T2 sequence (P35462 whole entry): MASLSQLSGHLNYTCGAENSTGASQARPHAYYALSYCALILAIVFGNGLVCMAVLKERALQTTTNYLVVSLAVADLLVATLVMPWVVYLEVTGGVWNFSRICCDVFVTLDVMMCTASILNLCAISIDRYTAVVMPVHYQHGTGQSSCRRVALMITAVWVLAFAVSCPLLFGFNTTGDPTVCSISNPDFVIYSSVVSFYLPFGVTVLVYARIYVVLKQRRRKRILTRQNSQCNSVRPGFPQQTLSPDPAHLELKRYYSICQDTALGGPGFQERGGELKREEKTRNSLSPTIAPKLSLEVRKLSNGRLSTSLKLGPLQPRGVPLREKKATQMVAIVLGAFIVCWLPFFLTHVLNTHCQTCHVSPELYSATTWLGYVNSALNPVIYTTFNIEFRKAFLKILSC
Protocol: as §1, §2, §3, §4, §5, §6

5-HT5A = 5-HT5A (Homo sapiens, UniProt P47898); assay: Secondary radioligand binding assay (Ki)
5-HT5A, sequence (P47898 whole entry, species assumed): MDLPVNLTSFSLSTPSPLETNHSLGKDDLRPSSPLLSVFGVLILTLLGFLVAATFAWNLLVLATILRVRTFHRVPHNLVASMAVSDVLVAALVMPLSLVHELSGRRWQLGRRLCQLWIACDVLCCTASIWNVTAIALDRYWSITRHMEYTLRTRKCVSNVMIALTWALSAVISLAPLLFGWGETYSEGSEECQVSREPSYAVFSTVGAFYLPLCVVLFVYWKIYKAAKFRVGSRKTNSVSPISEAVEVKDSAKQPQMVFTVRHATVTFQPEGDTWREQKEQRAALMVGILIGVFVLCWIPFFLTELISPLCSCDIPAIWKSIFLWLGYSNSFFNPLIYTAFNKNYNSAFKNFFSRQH
Protocol: (§7) Assay Buffer: Standard Binding Buffer (50 mM Tris-HCl, 10 mM MgCl2, 1 mM EDTA, pH 7.4)
(§8) Membrane Fraction Source: Transiently or stably transfected cell lines (e.g., HEK293, COS, CHO, NIH3T3)
as §1, §2, §3

dopamine D2 [3] = target: T1, dopamine D2; assay: Primary radioligand binding assay (NIMH PDSP); details: primary radiobinding assay, [3H]N-methylspiperone; on D3 (% inh): test concentration or dose not given here; on D4 (% inh): test concentration or dose not given here
5HT1a [4] = target: T3, 5HT1a (Homo sapiens, UniProt P08908); assay: Primary radioligand binding assay (NIMH PDSP); details: primary radiobinding assay, [3H]8-OH-DPAT; further: test concentration or dose not given here
T3 sequence (P08908 1-422): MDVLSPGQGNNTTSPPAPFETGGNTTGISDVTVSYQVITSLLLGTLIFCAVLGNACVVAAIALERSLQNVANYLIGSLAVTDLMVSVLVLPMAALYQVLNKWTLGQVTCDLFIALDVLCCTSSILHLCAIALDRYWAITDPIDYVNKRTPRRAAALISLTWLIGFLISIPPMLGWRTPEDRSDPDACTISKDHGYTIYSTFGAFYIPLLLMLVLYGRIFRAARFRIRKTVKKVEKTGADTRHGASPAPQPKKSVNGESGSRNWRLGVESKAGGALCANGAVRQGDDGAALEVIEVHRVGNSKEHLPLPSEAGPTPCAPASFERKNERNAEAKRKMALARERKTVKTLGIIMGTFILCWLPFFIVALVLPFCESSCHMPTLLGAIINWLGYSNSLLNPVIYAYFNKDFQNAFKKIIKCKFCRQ

Alpha1D = target: T4, Alpha1D (Homo sapiens, UniProt P25100); assay: Primary radioligand binding assay (NIMH PDSP); details: primary radiobinding assay, [3H]Prazosin
T4 sequence (P25100 1-572): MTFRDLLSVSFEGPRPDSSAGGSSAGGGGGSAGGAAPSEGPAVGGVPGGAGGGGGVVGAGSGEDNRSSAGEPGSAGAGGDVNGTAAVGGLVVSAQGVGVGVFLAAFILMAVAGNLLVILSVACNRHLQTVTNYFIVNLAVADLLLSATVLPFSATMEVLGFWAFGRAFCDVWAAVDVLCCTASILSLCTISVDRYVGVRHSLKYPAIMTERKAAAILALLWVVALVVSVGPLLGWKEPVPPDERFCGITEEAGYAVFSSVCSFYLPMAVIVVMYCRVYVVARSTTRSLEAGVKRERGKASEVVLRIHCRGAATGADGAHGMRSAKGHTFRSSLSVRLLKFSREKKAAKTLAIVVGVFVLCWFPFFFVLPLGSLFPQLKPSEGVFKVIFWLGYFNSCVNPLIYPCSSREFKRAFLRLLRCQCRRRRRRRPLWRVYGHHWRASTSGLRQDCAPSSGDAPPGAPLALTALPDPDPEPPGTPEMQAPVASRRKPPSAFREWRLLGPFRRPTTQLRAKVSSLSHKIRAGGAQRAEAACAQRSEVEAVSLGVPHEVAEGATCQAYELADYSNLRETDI

5HT1a [5] = target: T3, 5HT1a; assay: Secondary radioligand binding assay (Ki); details: for α1/D2: Table 24: Selectivity of 5HT1A over average of α1 Receptors; for α1A/D2 / α1B/D2 / α1D/D2: Table 24: Selectivity of 5HT1A over α1 Receptors, ratio of Ki
Protocol: as §7, §8, §1, §2, §3

dopamine D5 = dopamine D5 (Homo sapiens, UniProt P21918); assay: Primary radioligand binding assay (NIMH PDSP); details: primary radiobinding assay, [3H]SCH233930; further: test concentration or dose not given here
dopamine D5, sequence (P21918 whole entry): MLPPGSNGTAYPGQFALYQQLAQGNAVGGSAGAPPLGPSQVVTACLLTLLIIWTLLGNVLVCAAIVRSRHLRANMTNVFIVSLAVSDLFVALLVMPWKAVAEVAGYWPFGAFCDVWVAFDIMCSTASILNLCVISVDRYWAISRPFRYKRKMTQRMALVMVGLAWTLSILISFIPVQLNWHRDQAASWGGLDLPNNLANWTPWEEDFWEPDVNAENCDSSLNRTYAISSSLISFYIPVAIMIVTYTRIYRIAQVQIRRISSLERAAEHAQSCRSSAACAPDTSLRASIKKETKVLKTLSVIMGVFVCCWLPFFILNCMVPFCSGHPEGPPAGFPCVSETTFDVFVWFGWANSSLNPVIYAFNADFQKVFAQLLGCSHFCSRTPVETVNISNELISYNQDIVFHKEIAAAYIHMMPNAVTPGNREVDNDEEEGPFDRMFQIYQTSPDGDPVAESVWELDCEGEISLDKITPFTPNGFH

Alpha1A = target: T5, Alpha1A (Homo sapiens, UniProt P35348); assay: Primary radioligand binding assay (NIMH PDSP); details: primary radiobinding assay, [3H]Prazosin; further: test concentration or dose not given here
T5 sequence (P35348 1-466): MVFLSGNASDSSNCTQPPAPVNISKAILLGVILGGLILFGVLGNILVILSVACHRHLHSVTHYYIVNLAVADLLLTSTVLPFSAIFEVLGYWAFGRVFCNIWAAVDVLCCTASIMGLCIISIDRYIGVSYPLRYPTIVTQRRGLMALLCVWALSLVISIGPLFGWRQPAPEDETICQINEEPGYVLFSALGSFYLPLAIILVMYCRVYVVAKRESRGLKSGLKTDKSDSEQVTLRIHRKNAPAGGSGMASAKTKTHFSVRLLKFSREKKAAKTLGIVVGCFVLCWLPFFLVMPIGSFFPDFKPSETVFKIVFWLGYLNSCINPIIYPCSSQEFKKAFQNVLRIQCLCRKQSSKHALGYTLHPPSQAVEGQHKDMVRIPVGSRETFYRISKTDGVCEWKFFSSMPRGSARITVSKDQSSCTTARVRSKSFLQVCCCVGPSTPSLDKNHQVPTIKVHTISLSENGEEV

dopamine D4 = target: T6, dopamine D4 (Homo sapiens, UniProt P21917); assay: Primary radioligand binding assay (NIMH PDSP); details: primary radiobinding assay, N-methylspiperone; on D3 (% inh): test concentration or dose not given here; on D4 (% inh): test concentration or dose not given here
T6 sequence (P21917 1-419): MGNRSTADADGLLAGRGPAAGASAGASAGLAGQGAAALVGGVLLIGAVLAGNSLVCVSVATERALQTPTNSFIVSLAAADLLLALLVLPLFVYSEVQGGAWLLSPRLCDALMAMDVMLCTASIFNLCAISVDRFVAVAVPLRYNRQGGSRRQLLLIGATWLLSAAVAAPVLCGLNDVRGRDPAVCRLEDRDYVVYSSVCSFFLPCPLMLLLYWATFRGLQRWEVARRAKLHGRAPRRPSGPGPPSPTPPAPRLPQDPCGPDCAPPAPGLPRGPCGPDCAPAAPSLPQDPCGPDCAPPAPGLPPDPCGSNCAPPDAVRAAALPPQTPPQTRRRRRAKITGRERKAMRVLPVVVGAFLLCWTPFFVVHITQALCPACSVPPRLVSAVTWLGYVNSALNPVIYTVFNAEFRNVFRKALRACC

dopamine D3 [6] = target: T2, dopamine D3; assay: Primary radioligand binding assay (NIMH PDSP); details: primary radiobinding assay, N-methylspiperone; on D3 (% inh): test concentration or dose not given here; on D4 (% inh): test concentration or dose not given here
α1A (Alpha1A) = target: T7, α1A (Alpha1A) (Homo sapiens, UniProt P35348); assay: Secondary radioligand binding assay (Ki)
T7 sequence (P35348 1-466): T5 sequence (P35348 1-466)
Protocol: as §1, §2, §3
Adrenergic Receptors: α1A, α1B, α2A, α2B, α2C, β1, β2, β3
as §5
The method is carried out in the manner described for the serotonin receptor assay above, except where described below. Eleven dilutions (5× assay concentration) of the test and reference (see Table 20) compounds are prepared in the appropriate buffer by serial dilution, as previously described. Radioligand is diluted to five times the assay concentration (see Table 21) in the appropriate buffer.
The 250 μl reactions are incubated at room temperature and shielded from light (to prevent photolysis of light-sensitive ligands) for 1 hour (for α1 receptors, 40 min for α2 receptors, and 1.5 hours for β receptors), then harvested by rapid filtration onto Whatman GF/B glass fiber filters pre-soaked with 0.3% polyethyleneimine using a 96-well Brandel harverster. Four rapid 500-μl washes are performed with chilled distilled water (for α1 and β receptors) or 0.1% polyethyleneimine (for α2 receptors) to reduce non-specific binding. Filters are placed in 6 ml scintillation tubes and allowed to dry overnight and the samples are treated to obtain data as described above.

dopamine D1 = dopamine D1 (Homo sapiens, UniProt P21728); assay: Primary radioligand binding assay (NIMH PDSP); details: primary radiobinding assay, [3H]SCH233930; further: test concentration or dose not given here
dopamine D1, sequence (P21728 whole entry): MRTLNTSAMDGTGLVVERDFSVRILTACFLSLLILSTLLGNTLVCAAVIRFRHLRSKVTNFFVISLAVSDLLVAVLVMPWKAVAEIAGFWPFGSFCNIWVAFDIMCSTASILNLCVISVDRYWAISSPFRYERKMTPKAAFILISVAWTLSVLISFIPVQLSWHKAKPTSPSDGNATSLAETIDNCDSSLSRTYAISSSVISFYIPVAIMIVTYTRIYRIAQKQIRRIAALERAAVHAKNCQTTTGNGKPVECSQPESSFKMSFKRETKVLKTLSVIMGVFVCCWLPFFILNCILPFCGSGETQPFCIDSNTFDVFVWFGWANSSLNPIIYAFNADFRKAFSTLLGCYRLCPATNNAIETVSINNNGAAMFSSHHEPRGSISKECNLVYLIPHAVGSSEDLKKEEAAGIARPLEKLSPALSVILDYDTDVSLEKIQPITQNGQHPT

[7] = read-out: Experimental Receptor Binding Data-Ki ALPHA_1A, Table 25, GPCR panel

Row | Compound | α1/D2 (dopamine D2 [1]) | α1A/D2 (dopamine D2 [1]) | α1B/D2 (dopamine D2 [1]) | α1D/D2 (dopamine D2 [1]) | α1/D2 (dopamine D3 [2]) | α1A/D2 (dopamine D3 [2]) | α1B/D2 (dopamine D3 [2]) | α1D/D2 (dopamine D3 [2]) | Ki (5-HT5A) [nM] | D2 (% inh) (dopamine D2 [3]) | 5ht1a (% inh) (5HT1a [4]) | Alpha1D (% inh) (Alpha1D) | Ki (5HT1a [5]) [nM] | α1/D2 (5HT1a [5]) | α1A/D2 (5HT1a [5]) | D5 (% inh) (dopamine D5) | Alpha1A (% inh) (Alpha1A) | D4 (% inh) (dopamine D4) | D3 (% inh) (dopamine D3 [6]) | D1 (% inh) (dopamine D1) | further results
1 | COc1cc2c(cc1OC)C(=O)N(CCCCN1CCN(c3ccccc3OC)CC1)C2 [GFR-VII-285] | 0.053 | 0.006 | 0.124 | 0.028 | 0.75 | 0.08 | 1.8 | 0.4 | 2440 | 96.2 | 93.3 | 96.8 | 23 | 0.4 | 0.04 | 75.1 | 102.7 | 91.6 | 100.5 | 91.3 | Ki (dopamine D2 [1]; read-out: Experimental Receptor Binding Data-Ki D2, Table 25, GPCR panel): 156 nM; Ki (dopamine D2 [1]; read-out: KiD2): 156 nM; Ki (dopamine D3 [2]; read-out: Experimental Receptor Binding Data-Ki D3, Table 25, GPCR panel): 11 nM; Ki (dopamine D3 [2]; read-out: KiD3): 11 nM; α1B/D2 (5HT1a [5]): 0.8; α1D/D2 (5HT1a [5]): 0.2; Ki (α1A (Alpha1A); [7]): 0.9 nM; Ki (α1A (Alpha1A); read-out: Kiα1A): 0.9 nM
2 | CC1Cc2ccccc2N1C(=O)CN1CCN(Cc2ccccc2)CC1 (stereo not shown) [STT-00185638, 2-[-4-(benzyl)-piperazin-1-yl]-1-(2-methy-2,3-dihydro-indol-1-yl)-ethanone] |  |  |  |  |  |  |  |  | 6770 | 66.2 | 64.9 | 42.8 | 7080 |  |  | 9.7 | 69.1 | 99.4 | 63.6 | 50.8 | Ki (dopamine D2 [1]): 2460 nM; Ki (dopamine D3 [2]): 3220 nM; Ki (α1A (Alpha1A)): 2060 nM
3 | COc1ccc2c(c1)C(=O)N(CCCN1CCN(c3ccccc3OC)CC1)C2 [GFR-VII-273] | 0.12 | 0.080 | 0.398 | 0.100 | 1.0 | 0.4 | 1.98 | 0.5 | 2900 | 85 | 92.5 | 99.3 | 6.5 | 24.0 | 10.0 | 31.8 | 102.2 | 99.6 | 94.1 | 49.5 | Ki (dopamine D2 [1]): 812 nM; Ki (dopamine D3 [2]): 163 nM; α1B/D2 (5HT1a [5]): 49.7; α1D/D2 (5HT1a [5]): 12.5; Ki (α1A (Alpha1A); [7]): 64.9 nM; Ki (α1A (Alpha1A); read-out: Kiα1A): 64.9 nM
